Patent publication US20210236577A1, “LIVESTOCK FEED ADDITIVE” (DELACON BIOTECHNIK GMBH, priority 2018, published 2021)
Read-outs that look alike come from different tables or passages of the source. Values belong to the compound of their own block, whether it stands above or below them.

Legend:
heat shock protein HSP70 = type: cell-based, Human
Excerpt: ID NO:1); β-actin reverse: [NT] NO:2); HSP70 forward: [NT] ID NO:3); HSP70 reverse: [NT] ID NO:4).

[1] = test system: broilers exposed to heat stress; assay: Trial IV: growth performance of broilers under heat stress, naringin dose levels vs betaine; type: in vivo, Ross 308 male broilers; conditions: for effect on body weight and daily body weight gain vs negative control: pre-heat stress period d 0 to 21
Excerpt: 1152 one-day old Ross 308 male broilers from a total of 1400 were used in the experiment. Any day-old broilers, showing signs of health problems, injury, or of being too small or in poor condition were excluded in the selection process. Broilers were sexed at the hatchery. All day-old chicks were individually weighted and grouped according to weight. The birds were then assigned to the 36 pens (6 repetitions of 6 treatments), and each pen initially consisted of 34 broilers. On day 4 of the experiment in each pen, the weakest 2 broilers were removed and all pens were equated to 32 birds per pen by negative selection. Birds of the negative control group were fed the basal diet without any further phytogenic additive. The reference group was fed a diet providing 500 mg/kg feed betaine from a natural betaine source (Actibeet®, Agrana). To the diets of groups 3, 4, 5 and 6 the phytogenic premixes with compound “B” were added to achieve final dietary Naringin concentrations of 12/18/24/30 mg/kg of feed.
The trial was carried out at the Delacon Research Facility (Stošíkovice na Louce, Czech Republic). Birds were kept in floor pens, each having an area of 2.1 m^2 (1,65×1,275 m; 2.03 m^2 of usable area=not counting the space occupied with the feeder), with fresh wood shavings as bedding material. Stocking density at the end of the trial was 14,78 chicks/m^2 (38.7 kg/m^2). The building was supplied with artificial, programmable lights, automated central heating and forced ventilation. Temperature was set according to the breeders' recommendations from day 1 to day 21 of age. The onset of heat stress was on day 22 of age. Thereby a cyclic heat stress regime was applied. The heat stress period was from 09:00 in the morning until 17:00 in the afternoon. The average house temperature in this period was 34° C. The “cooling night period” was from 19:00 in the evening until 07:00 in the morning. The average room temperature in this period was 26° C. The time intervals from 07:00 to 09:00 in the morning and from 17:00 to 19:00 in the evening was used to gradually increase or decrease the temperature to 34° C. and 26° C., respectively. In order to increase the humidity of the chicken house under the heat stress regime, towels on the heat panels were moistened 5 times per hour during the heat stress period. Relative humidity was maintained at about 70-80%.
Birds were fed a basal diet, based on wheat, corn, and soybean meal. For each feeding period (starter/grower, grower/finisher) feed was calculated to be iso-nutritive (Table 6). Dietary nutrient concentrations were calculated to fulfill the current recommendations of the broilers according to the breeders' recommendations. According to the applied 2-phase-feeding, a starter/grower diet was offered from days 1 to 21 and a grower/finisher diet from days 22 to 42. The composition of the diets, used in trials IV, V, VI, for the single phases and the calculated nutrient contents are given in Table. All diets were offered to the birds as pelleted feed.
The statistical analyses were performed with the software package SAS. After checking the homogeneity of the data, means were compared by the usual test procedures (Tukey test). Statistical significance was declared at P 0.05, with 0.05<P 0.10 considered as a near-significant trend.

[2] = test system: broilers exposed to heat stress; assay: Trial V: growth performance of broilers under heat stress, combinations of naringin with different 1,8-cineole concentrations; type: in vivo, Ross 308 male broilers
Description: In the dose response trial for compound “B” (Trial IV) beneficial effects on the performance of the broilers under heat stress could be observed. […] Consequently in this trial the additional value of adding 1,8-Cineole (compound “A”) in a dose-dependent manner (6/12/24 mg/kg feed) to compound “B” at constantly 12 mg Naringin/kg diet was evaluated. The addition of 500 mg/kg betaine alone or 500 mg betaine+12 mg 1,8-Cineole/kg served as reference groups.
1224 one-day old Ross 308 male broilers from a total of 1400 were used in the experiment. Any day-old broilers, showing signs of health problems, injury, or of being too small or in poor condition were excluded in the selection process. Broilers were sexed at the hatchery. All day-old chicks were individually weighted and grouped according to weight. The birds were then assigned to the 36 pens (6 repetitions of 6 treatments), and each pen initially consisted of 34 broilers. On day 4 of the experiment in each pen, the weakest 2 broilers were removed and all pens were equated to 32 birds per pen by negative selection.
Birds of the negative control group were fed the basal diet without any further phytogenic additive. […]

Compound: CC12CCC(CC1)C(C)(C)O2 [A, 1,8 Cineole]
- increase in HSP 70 induction compared to control cells (heat shock protein HSP70; CaCo2, 41° C. 1 hour, 7.5 mg 1,8 Cineole/L): 15%
- increase of HSP 70 gene expression (heat shock protein HSP70; CaCo2, 41° C. 1 hour, 15 mg 1,8-Cineole/L): 22%
- increase of HSP 70 gene expression (heat shock protein HSP70; CaCo2, 41° C. 1 hour, 30 mg 1,8-Cineole/L): 24%
- increase of HSP 70 expression (heat shock protein HSP70; CaCo2, 41° C. 1 hour, highest dose tested, 45 mg 1,8-Cineole/L): 44%
- increase of HSP 70 expression / induction, single substances alone vs combination (FIG. 3 E) (heat shock protein HSP70; CaCo2 under heat stress, at the tested levels (not given)): 20.8%

Compound: C[C@@H]1O[C@@H](O[C@H]2[C@H](Oc3cc(O)c4c(c3)O[C@H](c3ccc(O)cc3)CC4=O)O[C@H](CO)[C@@H](O)[C@@H]2O)[C@H](O)[C@H](O)[C@H]1O [B, Naringin]
- performance values (body weight/weight gain/FCR) vs betaine reference group ([1]; broilers under heat stress, 12 mg/kg Naringin complete diet vs 500 mg/kg betaine): slightly better than in the betaine reference group
- body weight at day 42 compared with untreated control ([1]; heat stress d22 to 42, compound B groups 12-30 mg/kg): +80 to +140 g
- final body weight compared to the negative control ([1]; heat stress d22 to 42, lowest compound B dose (12 mg/kg)): +140 g
- effect on body weight and daily body weight gain vs negative control ([1]; all doses 12, 18, 24 and 30 mg/kg diet): +2.79 to +13%
- effect on body weight and daily body weight gain vs negative control ([1]; lowest dose 12 mg/kg, significant): +13%
- HSP 70 induction compared to untreated control cells (heat shock protein HSP70; CaCo2, 41° C. 1 hour, 60 mg Naringin/L, adverse effect): −23%
- increase in HSP 70 induction compared to untreated control cells (heat shock protein HSP70; CaCo2, 41° C. 1 hour, Naringin 12 to 30 mg/L, significant): +24 to +27%
- increase of HSP 70 induction compared to untreated control cells (heat shock protein HSP70; CaCo2, 41° C. 1 hour, lowest Naringin concentration tested (6 mg/L), not significant): +16%

- HSP 70 induction in CaCo2 cells over the control (in words) (heat shock protein HSP70; Caco-2): improve HSP 70 induction
Compound: Betalain [C]

Compound: C[N+](C)(C)CC(=O)[O-] [betaine, N,N,N-Trimethylammonioacetate, reference compound]
- increase of daily weight gain compared to the negative control ([2]; pre-heat stress period, betaine 500 mg/kg alone or plus 12 mg/kg compound A): 2.5%
- growth promoting effect / increase of growth performance compared to the negative control ([2]; under heat stress conditions d22 to 42, betaine 500 mg/kg, all tested combinations AB): +2.0%
- body weight at day 42 compared with untreated control ([1]; heat stress d22 to 42, betaine 500 mg/kg): +170 g
- effect on body weight and daily body weight gain vs negative control ([1]; betaine 500 mg/kg): +4.9%
- heat shock protein 70 induction compared to untreated control cells (heat shock protein HSP70; CaCo2, 41° C. 1 hour, 100, 250 and 1000 mg/L betaine): −7 to −19%
- heat shock protein 70 response compared to untreated control cells (heat shock protein HSP70; CaCo2, 41° C. 1 hour, 500 and 2000 mg/L betaine, non-significant): +10 to +12%
